Tests used:
Cannabinoid receptor 1 [1] = biological target: T1, Cannabinoid receptor 1 (Homo sapiens, UniProt P21554); assay: Binding affinity against human cannabinoid receptor by using radioligand ([3H]CP-55940) assay.
[2] = biological target: Cannabinoid receptor (Homo sapiens) (UniProt P34972+P21554); assay: Ratio of binding affinity of hCB1 to hCB2 was reported; type: protein assay
Cannabinoid receptor 2 = Cannabinoid receptor 2 (Homo sapiens, UniProt P34972); assay: Binding affinity against human Cannabinoid receptor 2 by using radioligand ([3H]CP-55940) assay.
Cannabinoid receptor 1 [3] = biological target: T1, Cannabinoid receptor 1; assay: Compound was evaluated for binding affinity against human cannabinoid receptor by using radioligand ([3H]CP-55940) assay; second determination
Cannabinoid receptor 1 [4] = biological target: T1, Cannabinoid receptor 1; assay: Compound was evaluated for binding affinity against human cannabinoid receptor by using radioligand ([3H]CP-55940) assay; first determination

T1 sequence (P21554 whole entry): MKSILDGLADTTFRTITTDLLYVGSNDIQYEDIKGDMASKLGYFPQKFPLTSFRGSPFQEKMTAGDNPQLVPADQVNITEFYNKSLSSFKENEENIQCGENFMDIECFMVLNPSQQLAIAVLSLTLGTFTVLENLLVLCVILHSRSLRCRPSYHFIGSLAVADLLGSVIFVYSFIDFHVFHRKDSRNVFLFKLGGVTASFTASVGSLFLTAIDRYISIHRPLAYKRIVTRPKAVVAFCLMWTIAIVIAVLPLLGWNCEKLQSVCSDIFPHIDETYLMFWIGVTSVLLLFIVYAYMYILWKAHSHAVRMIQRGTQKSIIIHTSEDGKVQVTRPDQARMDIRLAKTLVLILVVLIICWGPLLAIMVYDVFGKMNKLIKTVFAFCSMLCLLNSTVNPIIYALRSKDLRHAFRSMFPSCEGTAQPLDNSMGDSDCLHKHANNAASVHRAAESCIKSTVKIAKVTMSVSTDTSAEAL
Chain of Cannabinoid receptor (Homo sapiens) (P21554 whole entry, looked up): as the sequence (P21554 whole entry) above
Chain of Cannabinoid receptor (Homo sapiens) (P34972 whole entry, looked up): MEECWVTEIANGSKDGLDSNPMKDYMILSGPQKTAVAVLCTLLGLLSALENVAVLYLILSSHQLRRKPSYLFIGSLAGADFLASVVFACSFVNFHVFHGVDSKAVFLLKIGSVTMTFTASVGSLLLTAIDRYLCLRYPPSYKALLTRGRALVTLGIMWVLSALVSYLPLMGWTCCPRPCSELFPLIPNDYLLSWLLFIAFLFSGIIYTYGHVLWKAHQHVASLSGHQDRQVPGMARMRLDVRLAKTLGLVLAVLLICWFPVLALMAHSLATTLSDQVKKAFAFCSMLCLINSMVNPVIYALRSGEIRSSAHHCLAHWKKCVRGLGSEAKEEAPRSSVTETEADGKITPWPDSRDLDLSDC
Chain of Cannabinoid receptor 2 (P34972 whole entry): as the sequence (P34972 whole entry, looked up) above

SMILES	Ki (Cannabinoid receptor 1 [1]) [nM]	Ratio [2]	Ki (Cannabinoid receptor 2) [nM]	Ki (Cannabinoid receptor 1 [3]) [nM]	Ki (Cannabinoid receptor 1 [4]) [nM]
CCCCCCC(C)(C)c1cc(OC)c2c(c1)OC(C)(C)[C@@H]1CCC(=O)C[C@@H]21	621	4.7	132		
CCCCCCC(C)(C)c1cc(O)c(-c2cc(C)cc(C)c2)c(O)c1	79.1	40	2		
CCCCCCC(C)(C)c1cc(O)c2c(c1)OC(C)(C)[C@H]1CC=C(C=O)C[C@H]21	97	0.8	119		
CCCCCCC(C)(C)c1cc(O)c2c(c1)OC(C)(C)[C@@H]1CC=C(C)C[C@@H]21	0.83	1.7	0.49		
CCCCCCC(C)(C)c1ccc2c(c1)OC(C)(C)[C@@H]1CC=C(C)C[C@@H]21	250	12	20.8		
CCCCCCC(C)(C)c1cc(O)c2c(c1)OC(C)(C)[C@H]1CC=C(C)C[C@H]21	38.8	1.3	28.8		
CCCCCCC(C)(C)c1cc(OC)c2c(c1)OC(C)(C)[C@@H]1CC=C(C)C[C@@H]21	15800	793	20		
C=C1CC[C@@H]2[C@@H](C1)c1c(OC)cc(C(C)(C)CCCCCC)cc1OC2(C)C	> 20000	> 1000	19.4		
C=C1CC[C@@H]2[C@@H](C1)c1c(O)cc(C(C)(C)CCCCCC)cc1OC2(C)C	1.82	3.1	0.58		
CCCCCCC(C)(C)c1ccc(-c2cc(C)cc(C)c2)cc1	> 30000	> 14	2140		
CCCCCCC(C)(C)c1cc2c(c(OP(=O)(OCC)OCC)c1)[C@@H]1CC(C)=CC[C@H]1C(C)(C)O2		> 45	442	> 20000	> 20000
CCCCCCC(C)(C)c1cc(O)c([C@@H]2C=C(C)C3C[C@H]2C3(C)C)c(O)c1	350	9	41.2		
CCCCCCC(C)(C)c1ccc(-c2cc(C)cc(C)c2)c(O)c1	12.5	3	4.14		
CCCCCCC(C)(C)c1cc(OC)c(-c2cc(C)cc(C)c2)c(OC)c1	> 20000	> 46	433		
CCCCCCC(C)(C)c1cc(O)c2c(c1)OC(C)(C)[C@@H]1CC=C(C=O)C[C@@H]21	2.24	0.9	2.61		
CCCCCCC(C)(C)c1cc(O)c2c(c1)OC(C)(C)[C@@H]1CCC(=O)C[C@@H]21 [NABILONE]	2.19	1.2	1.84		
